According to US12378211B2, “Carbonic anhydrase inhibitors and antibiotics against multidrug resistant bacteria” (Purdue Research Foundation, priority 2018, dated 2025):
In brackets after ≈: the same amount, converted by molar mass. Read-outs that look alike come from different tables or passages of the source.

Tests used:
[1] = system: Mutant-9 of Enterococcus fecalis NR 31975; test: microbe, parasite or virus in culture; type: cell-based; conditions: Enterococcus
[2] = system: Mutant-12 of Enterococcus fecalis NR 31975; test: microbe, parasite or virus in culture; type: cell-based; conditions: Enterococcus
[3] = system: MRSA NRS 384 (MRSA USA300); test: MIC against Staphylococci, broth microdilution; type: cell-based, Staphylococcus aureus; conditions: Staphylococcus aureus; TSB; read-out: MIC
Experimental: (§1) The minimum inhibitory concentrations (MICs) of the compounds and control drugs were determined using the broth microdilution method, according to guidelines outlined by the Clinical and Laboratory Standards Institute (CLSI) 1. Staphylococci strains were grown aerobically overnight on tryptone soya agar plates at 37° C., afterwards a bacterial solution equivalent to 0.5 McFarland standard was prepared and diluted in tryptone soy broth (TSB) to achieve a bacterial concentration of about 5×10^5 CFU/mL and seeded in 96-well well plates. Compounds and control drugs were added in the first row of the 96-well plates and serially diluted along the plates. Plates were then incubated aerobically at 37° C. for 18-20 hours. MICs reported in Table 2 are the minimum concentration of the compounds/control drugs that could inhibit completely the visual growth of the bacteria.

[4] = system: Enterococcus faecium E417-HM-965; test: MIC, broth microdilution in TSB; type: cell-based; conditions: Enterococcus faecium, E417HM965, TSB
Experimental: as §1, with “Institute (CLSI). Enterococci” for “Institute (CLSI) 1. Staphylococci”, “Table 1” for “Table 2”

[5] = system: Enterococcus faecium Patient #2-1-NR-31909; test: MIC, broth microdilution in TSB; type: cell-based; conditions: Enterococcus faecium, TSB
Experimental: as §1, with “Institute (CLSI). Enterococci” for “Institute (CLSI) 1. Staphylococci”, “Table 1” for “Table 2”

[6] = system: Mutant-13 of Enterococcus fecalis NR 31975; test: microbe, parasite or virus in culture; type: cell-based; conditions: Enterococcus
[7] = system: Mutant-6 of Enterococcus fecalis NR 31975; test: microbe, parasite or virus in culture; type: cell-based; conditions: Enterococcus
[8] = system: Mutant-7 of Enterococcus fecalis NR 31975; test: microbe, parasite or virus in culture; type: cell-based; conditions: Enterococcus
[9] = system: Staphylococcus epidermidis NRS 101; test: MIC against Staphylococci, broth microdilution; type: cell-based; conditions: Staphylococcus epidermidis, NRS101; TSB; read-out: MIC
Experimental: as §1

[10] = system: Mutant-8 of Enterococcus fecalis NR 31975; test: microbe, parasite or virus in culture; type: cell-based; conditions: Enterococcus
[11] = system: Mutant-3 of Enterococcus fecalis NR 31975; test: microbe, parasite or virus in culture; type: cell-based; conditions: Enterococcus
[12] = system: Mutant-15 of Enterococcus fecalis NR 31975; test: microbe, parasite or virus in culture; type: cell-based; conditions: Enterococcus
[13] = system: Mutant-11 of Enterococcus fecalis NR 31975; test: microbe, parasite or virus in culture; type: cell-based; conditions: Enterococcus
[14] = system: Mutant-5 of Enterococcus fecalis NR 31975; test: microbe, parasite or virus in culture; type: cell-based; conditions: Enterococcus
[15] = system: Bacteroides dorei—CL02T12C06 HM-719; test: MIC against human normal gut microbiota; type: cell-based; conditions: Bacteroides; BHIS broth, anaerobic, 48 hours; read-out: MIC
Experimental: (§2) Three different bacterial strains were used in this experiment; Bifidobacterium (anaerobic Gram positive bacteria), Bacteroides (anaerobic Gram negative bacteria) and Lactobacillus (microaerophilic Gram positive bacteria). Bifidobacterium and Bacteroides were first grown for 48 hours at 37° C., anaerobically using brain heart infusion supplemented (BHIS) agar (Brain heart infusion agar supplemented with hemin, vitamin K and L-cysteine). Lactobacillus was cultivated on MRS agar and incubated in presence of 5% CO2 for 48 hours at 37° C. Each bacterium was suspended in phosphate buffered saline (PBS) to produce a suspension with optical density that matches 0.5 McFarland standard and diluted in brain heart infusion supplemented broth (for Bifidobacterium and Bacteroides) or in MRS broth (for Lactobacillus) to achieve bacterial concentration of approximately 5×10^5 CFU/ml. Bacteria were then seeded in 96-well plates containing serial dilutions of the compounds and incubated as mentioned previously for 48 hours.

[16] = system: Lactobacillus gasseri EX336960VC03 HIM-400; test: MIC against human normal gut microbiota; type: cell-based; conditions: Lactobacillus gasseri; MRS broth, 5% CO2, 48 hours; read-out: MIC
Experimental: as §2

[17] = system: Bifidobacterium breve—JCP7499 HIM 1120; test: MIC against human normal gut microbiota; type: cell-based; conditions: Bifidobacterium; BHIS broth, anaerobic, 48 hours; read-out: MIC
Experimental: as §2

[18] = system: Bifidobacterium longum subsp. Longum—44B HM 845; test: MIC against human normal gut microbiota; type: cell-based; conditions: Bifidobacterium longum; BHIS broth, anaerobic, 48 hours; read-out: MIC
Experimental: as §2

[19] = system: Lactobacillus casei ATCC 334; test: MIC against human normal gut microbiota; type: cell-based; conditions: Lacticaseibacillus casei, ATCC334; MRS broth, 5% CO2, 48 hours; read-out: MIC
Experimental: as §2

[20] = system: Bacteroides fragilis—CL07T00C01 HIM-709; test: MIC against human normal gut microbiota; type: cell-based; conditions: Bacteroides; BHIS broth, anaerobic, 48 hours; read-out: MIC
Experimental: as §2

[21] = system: Mutant-4 of Enterococcus fecalis NR 31975; test: microbe, parasite or virus in culture; type: cell-based; conditions: Enterococcus
[22] = system: Mutant-14 of Enterococcus fecalis NR 31975; test: microbe, parasite or virus in culture; type: cell-based; conditions: Enterococcus
[23] = system: Mutant-2 of Enterococcus fecalis NR 31975; test: microbe, parasite or virus in culture; type: cell-based; conditions: Enterococcus
[24] = system: Enterococcus faecium E417-HM-965; test: MIC of CAIs in BHIB and TSB; type: cell-based; conditions: Enterococcus faecium, read-out: MIC
Experimental: (§3) The minimum inhibitory concentrations (MICs) of CAIs were tested against clinical isolates of vancomycin sensitive and vancomycin resistant Enterococci strains as per the guidelines provided by the Clinical and Laboratory Standards Institute (CLSI). The selected strains of Enterococci were streaked on Tryptic Soy Agar (TSA) plates and let grow for 24 hours at 37° C. Afterwards, a bacterial solution equivalent to 0.5 McFarland standard was prepared and diluted in tryptone soy broth (TSB) or brain heart infusion broth (BHIB) to achieve a bacterial concentration of about 5×10^5 CFU/mL and seeded in 96-well well plates. Compounds and control drugs were added in the first row of the 96-well plates and serially diluted along the plates. Plates were then incubated aerobically at 37° C. for 18-20 hours. MICs reported in Table 5 are the minimum concentration of the compounds/control drugs that could inhibit completely the visual growth of the bacteria.

[25] = system: Enterococcus fecalis Strain SF 24397 NR31970; test: MIC of CAIs in BHIB and TSB; type: cell-based; conditions: Enterococcus, read-out: MIC
Experimental: as §3

[26] = system: Enterococcus faecium Patient #2-1-NR-31909; test: MIC of CAIs in BHIB and TSB; type: cell-based; conditions: Enterococcus faecium, read-out: MIC
Experimental: as §3

[27] = system: Enterococcus faecalis—S613 HM-334; test: MIC of CAIs in BHIB and TSB; type: cell-based; conditions: Enterococcus, read-out: MIC
Experimental: as §3, with “bacteria. The MIC values of CAIs against the tested VRE strains were higher in BHIB than in TSB. This may be due to binding of these drugs to proteins. […] They inhibited the VRE strains at MIC values ranging from 1 to 4 μg/mL.” for “bacteria.”

[28] = system: Enterococcus faecalis-S613 HM-334; test: MIC in presence of 4% human serum albumin; type: cell-based; conditions: Enterococcus; TSB supplemented with 4% human serum albumin; read-out: MIC
Experimental: as §3, with “against” for “against clinical isolates of vancomycin sensitive and”, “resistant Enterococcus faecalis—S613 HM 334 strain” for “resistant Enterococci strains”, “selected strain was” for “selected strains of Enterococci were”, “(TSA) plate” for “(TSA) plates”, “(TSB) supplemented with 4% human serum albumin (HAS)” for “(TSB) or brain heart infusion broth (BHIB)”, “in table (6)” for “in Table 5”

[29] = system: gut microbiota; set-up: species or system C57BL/6 mice; conditions: mouse, in vivo, po, 10 mg/kg
Experimental: CAIs had no major impact on microbiota composition. An extremely promising and innovative feature of CAIs is their narrow spectrum of activity and their ability to decolonize VRE without harming the microbiome. […] To characterize the impact of CAIs administration on the composition of the gut microbiota we performed the following assay6. Female 12-week-old C57BL/6 mice (n=5 mice per group) were exposed to CAIs by oral gavage for 10 days (10 mg/kg daily). Twenty-four hours after last dose, mice were euthanized and cecal and colon contents were harvested. The microbiome was characterized using 16S rDNA gene sequencing. The microbiotas from treated mice were compared to those from a group of control mice. […] However, at the phylum level, we observed decrease in Firmicutes in CAIs treatment groups and likely due to decrease of enterococci as enterococcus is a large genus of the phylum Firmicutes. The Verrucomicrobia and Bacteroidetes remain constant while other phyla increase to fill the remaining percentage from Firmicute loss. […] Indeed, the use of traditional antibiotics can increase the selective pressure and contribute to the selection of other multi-drug-resistant organisms (Kofteridis D. et al., Int J Infect Dis 2009, 13, e313-315).

[30] = Preliminary in vivo toxicity study; conditions: 200 mg/kg twice daily (400 mg/kg daily) for three days
[31] = system: vancomycin-resistant E. faecium; test: Mouse model of GI colonization by VRE; type: in vivo, C57BL/6 mice; conditions: 10 mg/kg by oral gavage for 8 days; feces as early as 3rd day
Excerpt: Feasibility in vivo study: AZM reduces VRE load in the intestines and faeces. The promising feature, and the specific and potent antimicrobial activity of CAIs, prompted us to evaluate the in vivo efficacy of AZM in our established mouse model of GI colonization by enterococci with features that mimic the antibiotic-induced enterococcal expansion observed in humans (Mohammad, H. et al., Int J Antimicrob Agents 2018, 51, 897-904; Abdelkhalek, A, et al., PLoS One 2018, 13, e0199710). We tested AZM (two clinical doses 10 and 20 mg/kg) in female 12-week-old C57BL/6 mice (n=5 mice per group) that were sensitized with ampicillin ([…] in drinking water) for 7 days to reduce the microbiota present in the gastrointestinal tract and colonized with 10^8 CFU/mL of vancomycin-resistant E. faecium.
We thought that the rapid absorption of AZM from the gastrointestinal tract would limit their exposure time to VRE present in the gastrointestinal tract.
Mice were treated for 8 days with 10 mg/kg of drugs by oral gavage.

**Q.** What does the source list for CCCC(=O)Nc1nnc(S(N)(=O)=O)s1 [CAI0013, N-(5-Sulfamoyl-1,3,4-thiadiazol-2-yl) butyramide]?
**A.** MIC [1]: 8 µg/mL (≈ 32 µM); MIC [2]: 8 µg/mL (≈ 32 µM); MIC [3]: > 64 µg/mL; MIC ([4]; Table 1, read-out: MIC): 0.5 µg/mL (≈ 2 µM); MIC ([4]; Table 7, read-out: MIC in TSB): 0.5 µg/mL (≈ 2 µM); MIC ([5]; Table 1, read-out: MIC): 0.5 µg/mL (≈ 2 µM); MIC ([5]; Table 7, read-out: MIC in TSB): 0.5 µg/mL (≈ 2 µM); MIC [6]: 16 µg/mL (≈ 63.9 µM); MIC [7]: 8 µg/mL (≈ 32 µM); MIC [8]: 8 µg/mL (≈ 32 µM); MIC [9]: > 64 µg/mL; MIC [10]: 16 µg/mL (≈ 63.9 µM); MIC [11]: 16 µg/mL (≈ 63.9 µM); MIC [12]: 16 µg/mL (≈ 63.9 µM); MIC [13]: 8 µg/mL (≈ 32 µM); MIC [14]: 16 µg/mL (≈ 63.9 µM); MIC [15]: > 64 µg/mL; MIC [16]: > 64 µg/mL; MIC [17]: > 64 µg/mL; MIC [18]: > 64 µg/mL; MIC [19]: > 64 µg/mL; MIC [20]: > 64 µg/mL; MIC [21]: 16 µg/mL (≈ 63.9 µM); MIC [22]: 8 µg/mL (≈ 32 µM); MIC [23]: 8 µg/mL (≈ 32 µM)

**Q.** Which MIC ([24]; E417HM965, BHIB) does the source give for CCN[C@H]1C[C@H](C)S(=O)(=O)c2sc(S(N)(=O)=O)cc21 [Dorzolamide] here?
**A.** 128 µg/mL

**Q.** What about the MIC ([24]; E417HM965, TSB, Table 5) of the same molecule?
**A.** 16 µg/mL

**Q.** And the MIC ([25]; BHIB)?
**A.** > 128 µg/mL

**Q.** And the MIC ([25]; TSB, Table 5)?
**A.** 8 µg/mL

**Q.** What about the MIC ([26]; BHIB) of the same molecule?
**A.** > 128 µg/mL

**Q.** And the MIC ([26]; TSB, Table 5)?
**A.** 8 µg/mL

**Q.** And the MIC ([27]; BHIIB)?
**A.** > 128 µg/mL

**Q.** What about the MIC ([27]; TSB, Table 5) of the same molecule?
**A.** 8 µg/mL

**Q.** What about the MIC [28] of the same molecule?
**A.** > 256 µg/mL

**Q.** What about the “taxonomic structure and composition of microbiota” value [29] of the same molecule?
**A.** no major shift or change

**Q.** With NS(=O)(=O)c1nnc(NCc2ccccc2C(F)(F)F)s1 [analog 8, 5-((2-(trifluoromethyl)benzyl)amino)-1,3,4-thiadiazole-2-sulfonamide] as the molecule, how does the “signs of distress or toxicity” value [30] read?
**A.** None of the mice exhibited any signs of distress or toxicity

**Q.** And the “reduction of VRE in the feces, cecum and ileum” value [31]?
**A.** superior to AZM and linezolid
